Experimental data reported in patent US20230043863A1, “HETEROAROMATIC DERIVATIVES FOR USE AS REGULATOR, PREPARATION METHOD THEREFOR AND USE THEREOF” (JIANGSU HANSOH PHARMACEUTICAL GROUP CO., LTD., priority 2018, published 2023).
Where two headings read alike, the source gives them in different places.

What was measured:
JAK1 = JAK1 (Homo sapiens, UniProt P23458); assay: JAK kinase activity inhibition, TR-FRET (JAK1); type: biochemical; conditions: TR-FRET kinase assay
Outline: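 TR-FRET read (≈620 and 665 nm) after EDTA quench and 1-24 h antibody detection at RT. Kinase 0.1-20 nM, peptide substrate + ATP, 0.5-5 h RT reaction in HEPES 50-250 mM, MgCl2 5-20 mM. IC50 from 4-parameter fit vs DMSO and no-kinase controls.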

[1] = tested on: JAK-STAT signal pathway of U266 cells; assay: Inhibition of cellular JAK-STAT signal pathway (STAT3 phosphorylation) in U266 cells; type: cell-based, human; conditions: Homo sapiens, U-266, INF-a 1000 U/mL stimulation
Outline: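 U266 cells (100-300 K/well) preincubated 2 h at room temperature with serially diluted compound, then stimulated 15 min with IFN-α at 1000 U/mL final. After lysis, STAT3 phosphorylation read by LANCE Ultra TR-FRET (Eu antibody 0.5 nM, ULight antibody 5 nM, overnight) at 665 nm; IC50 from 4-parameter fit of inhibition versus DMSO and negative controls.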

[2] = Balb/C mouse pharmacokinetics (plasma, colon, ileum); type: in vivo; conditions: male, po, Balb/C mice, p.o. 5 mg/kg; for Cmax: read-out: Blood concentration Cmax; for AUC(0-t): read-out: Curve area AUC0-t; for MRT: read-out: Mean detention time MRT; for Tmax: read-out: Time to peak tmax; for AUC(0-inf): read-out: Curve area AUC0-∞; for half-life: read-out: Half life period t1/2 (converted)
From the text: Balb/C mouse was used as the test animal, the pharmacokinetic behavior in mice (plasma and colon, ileum tissue) was studied after oral administering the embodiment 1, embodiment 60, embodiment 169, embodiment 170, embodiment 171, embodiment 179, embodiment 191, embodiment 213, embodiment 214, embodiment 237, embodiment 238, embodiment 244, embodiment 246, embodiment 247, embodiment 257, embodiment 260, embodiment 262, embodiment 263, embodiment 267, embodiment 277, embodiment 278, embodiment 279, embodiment 288, embodiment 295, embodiment 299 and embodiment 301 at a dose of 5 mg/kg. After analyzing the drug concentration in the colon and ileum, the ratio of the drug concentration in the colon to that in ileum, and the ratio of the drug concentration in the colon to that in the plasma, the compounds with excellent PK were selected for further research.
12 Balb/C mice in each group, male, Shanghai Jiesjie Experimental Animal Co., Ltd., animal production license number (SCXK (Shanghai) 2013-0006 N0.311620400001794).
12 Balb/C mice in each group, male; p.o. after one night fast; the dose was 5 mg/kg; the administration volume was 10 mL/kg.
At 0, 0.5, 1, 2, 3, 5 and 7 hours before and after the administration, the mice were executed by CO2 and 0.2 mL of blood was collected from the heart, placed in an EDTA-K2 test tube, and centrifuged at 6000 rpm at 4° C. for 6 minutes to separate the plasma, which was then stored at −80° C. The ileum was taken close to the cecum end with a length of about 4-5 cm, and the colon was also taken close to the cecum end with a length of about 2-3 cm, weighed and placed in a 2 mL centrifuge tube, then stored at −80° C.
1) 40 uL of plasma sample was precipitated by adding 160 uL of acetonitrile, mixed and centrifuged at 3500×g for 5-20 minutes.
2) 30 μL of plasma and intestinal homogenate sample were precipitated by adding 90 of acetonitrile containing internal standard (100 ng/mL), mixed and centrifuged at 13000 rpm for 8 minutes.
3) 70 μL of the supernatant solution after treatment was collected and 70 μL of water was added thereto, vortexed and mixed for 10 minutes, and then 20 μL was collected to analyze the concentration of the test compound by LC/MS/MS. LC/MS/MS analysis instrument: AB Sciex API 4000 Qtrap.
Liquid phase conditions: Shimadzu LC-20AD Pump
Chromatographic column: Agilent ZORBAX XDB-C18 (50×2.1 mm, 3.5 μm) mobile phase: 0.1% formic acid aqueous solution as A solution, acetonitrile as B solution
Elution time: 0-4.0 minutes, the eluent is as follows:
The main pharmacokinetic parameters were calculated with WinNonlin 6.1, and the results of mouse pharmacokinetic experiments are shown in Table 3:
NA refers to none detected or not being tested (the detection limit of blood concentration was 1 ng/mL, when the Cmax in the blood test is NA, then NA in the blood test index refers to none detected; when the Cmax in the blood test is higher than the quantitative limit 1 ng/mL, then NA in the blood test index refers to not being tested; NA in the tissues (colon and ileum) refers to not being tested).

Sequence of JAK1 (P23458 whole entry): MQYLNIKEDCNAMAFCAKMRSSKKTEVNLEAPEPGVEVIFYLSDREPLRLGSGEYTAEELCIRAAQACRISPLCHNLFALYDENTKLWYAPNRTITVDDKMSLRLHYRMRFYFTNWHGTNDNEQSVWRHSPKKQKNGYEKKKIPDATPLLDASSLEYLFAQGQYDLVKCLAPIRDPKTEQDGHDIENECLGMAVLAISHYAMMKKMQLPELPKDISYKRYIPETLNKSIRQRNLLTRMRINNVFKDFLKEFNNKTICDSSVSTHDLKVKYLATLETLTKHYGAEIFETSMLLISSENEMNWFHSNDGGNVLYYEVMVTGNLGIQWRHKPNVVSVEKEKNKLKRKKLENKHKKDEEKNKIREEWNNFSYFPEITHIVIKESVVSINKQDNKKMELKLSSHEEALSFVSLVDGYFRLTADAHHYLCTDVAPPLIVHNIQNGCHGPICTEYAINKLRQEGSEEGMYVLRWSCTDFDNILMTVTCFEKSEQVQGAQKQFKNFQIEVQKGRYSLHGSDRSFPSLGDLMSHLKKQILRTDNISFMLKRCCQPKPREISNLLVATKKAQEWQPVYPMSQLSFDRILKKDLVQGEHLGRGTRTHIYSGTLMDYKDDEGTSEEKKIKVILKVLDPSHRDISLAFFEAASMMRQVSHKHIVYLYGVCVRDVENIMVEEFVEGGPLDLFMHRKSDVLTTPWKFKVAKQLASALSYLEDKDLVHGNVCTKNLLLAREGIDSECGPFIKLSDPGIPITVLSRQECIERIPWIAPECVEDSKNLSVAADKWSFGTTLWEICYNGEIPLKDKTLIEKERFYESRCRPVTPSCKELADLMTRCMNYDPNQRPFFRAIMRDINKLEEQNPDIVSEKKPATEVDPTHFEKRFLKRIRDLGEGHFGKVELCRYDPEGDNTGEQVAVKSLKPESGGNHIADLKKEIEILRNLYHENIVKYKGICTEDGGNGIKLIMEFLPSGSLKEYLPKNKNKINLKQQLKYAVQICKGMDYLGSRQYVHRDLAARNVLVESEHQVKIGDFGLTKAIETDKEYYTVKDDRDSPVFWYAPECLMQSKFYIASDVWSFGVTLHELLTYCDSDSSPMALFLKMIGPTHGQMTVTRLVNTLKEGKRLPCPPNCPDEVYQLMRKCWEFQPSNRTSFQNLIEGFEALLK

SMILES | IC50 (JAK1) | IC50 [1] | Cmax ([2]; plasma, blood) | AUC(0-t) ([2]; plasma, blood) | MRT ([2]; plasma, blood) | Tmax ([2]; plasma, blood) | Cmax ([2]; colon) | AUC(0-t) ([2]; colon) | MRT ([2]; colon) | Tmax ([2]; colon) | Cmax ([2]; ileum) | AUC(0-t) ([2]; ileum) | AUC(0-inf) ([2]; ileum) | half-life ([2]; ileum) | MRT ([2]; ileum) | Tmax ([2]; ileum) | AUC(0-inf) ([2]; colon) | half-life ([2]; colon)
Cc1cc(Nc2nc(N[C@@H]3C[C@H]4CC[C@@H](C3)N4CCC#N)nc3cc(Br)ccc23)n[nH]1 [Embodiment 170, 3-((3-exo)-3-((7-bromine-4-((5-methyl-1H-pyrazol-3-yl)amino)quinazolin-2-yl)amino)-8-azabicyclo[3.2.1]oct-8-yl)propionitrile] | 0.66 nM | 3.35 nM | 16 ng/mL | 36.7 ng·h/mL | 4.13 h | 7 h | 4320 ng/mL | 13000 ng·h/mL | 3.36 h | 3 h | 49900 ng/mL | 118000 ng·h/mL | 172000 ng·h/mL | 5.48 h | 2.19 h | 1 h | – | –
Cc1cc(Nc2nc(N[C@@H]3C[C@H]4CC[C@@H](C3)N4S(=O)(=O)N3CC(C#N)C3)nc3sccc23)n[nH]1 [Embodiment 237, 1-(((3-exo)-3-((4-((5-methyl-1H-pyrazol-3-yl)amino)thieno[2,3-d]pyrimidin-2-yl)amino)-8-azabicyclo[3.2.1]oct-8-yl)sulfonyl)azetindin-3-formonitrile] | 0.07 nM | 0.56 nM | 7.12 ng/mL | 11 ng·h/mL | 1.73 h | 2 h | 2210 ng/mL | 6460 ng·h/mL | 3.43 h | 3 h | 4140 ng/mL | 15300 ng·h/mL | 15400 ng·h/mL | 0.55 h | 2.43 h | 3 h | 7240 ng·h/mL | 1.52 h
COc1ccc2c(Nc3cc(C)[nH]n3)nc(N[C@@H]3C[C@H]4CC[C@@H](C3)N4CCC#N)nc2c1 [Embodiment 169, 3-((3-exo)-3-((7-methoxyl-4-((5-methyl-1H-pyrazol-3-yl)amino)quinazolin-2-yl)amino)-8-azabicyclo[3.2.1]oct-8-yl)propionitrile] | 0.63 nM | 9.32 nM | 2.21 ng/mL | 3.04 ng·h/mL | 1.08 h | 0.5 h | 9010 ng/mL | 23200 ng·h/mL | 2.29 h | 5 h | 23300 ng/mL | 68900 ng·h/mL | – | – | 4.64 h | 1 h | – | –
Cc1cc(Nc2nc(N[C@@H]3C[C@H]4CCC[C@@H](C3)N4S(=O)(=O)N3CC(C#N)C3)nc3sccc23)n[nH]1 [Embodiment 238] | 0.03 nM | 1.15 nM | 12.7 ng/mL | 19.6 ng·h/mL | 1.47 h | 1 h | 1320 ng/mL | 5270 ng·h/mL | 4.16 h | 3 h | 21000 ng/mL | 36600 ng·h/mL | 36600 ng·h/mL | 0.58 h | 1.29 h | 1 h | 7380 ng·h/mL | 2.89 h
Cc1cc(Nc2nc(N[C@@H]3C[C@H]4CC[C@@H](C3)N4S(=O)(=O)N3CC(C#N)C3)nc3ccccc23)n[nH]1 [Embodiment 213, 1-(((3-exo)-3-((4-((5-methyl-1H-pyrazol-3-yl)amino)quinazolin-2-yl)amino)-8-azabicyclo[3.2.1]oct-8-yl)sulfonyl)azetindin-3-formonitrile] | 0.2 nM | 11.1 nM | 9.69 ng/mL | 7.37 ng·h/mL | 2.66 h | 3 h | 1750 ng/mL | 4930 ng·h/mL | 4.92 h | 5 h | 321 ng/mL | 1240 ng·h/mL | – | – | 4.26 h | 5 h | – | –
